The test system of this test is L1210 leukemia ip in BDF1 mice, survival T/C. As to the kind of experiment: NCI In Vivo Anticancer Drug Screen. Data for tumor model L1210 Leukemia (intraperitoneal) in B6D2F1 (BDF1) mice. To be noted: endpoint: mean survival time, higher = longer survival. Summed up:
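Transplantable tumor model; survival measured in treated vs vehicle control mice. Value = treated/control.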

[1] abbreviates: dose: 100.0 mg/kg/injection, schedule: Q01DX009 (ip), vehicle: saline with Tween-80.
Where [2] appears, read: dose: 100.0 mg/kg/injection, schedule: Q04DX003 (ip), vehicle: saline with Tween-80.
Where [3] appears, read: dose: 200.0 mg/kg/injection, schedule: Q01DX009 (ip), vehicle: saline with Tween-80.
Where [4] appears, read: dose: 200.0 mg/kg/injection, schedule: Q04DX003 (ip), vehicle: saline with Tween-80.
The mark [5] stands for this setting: dose: 400.0 mg/kg/injection, schedule: Q04DX003 (ip), vehicle: saline with Tween-80.
Setting [6] is: dose: 100.0 mg/kg/injection, schedule: Q01DX001 (ip), vehicle: saline.
[7] abbreviates: dose: 200.0 mg/kg/injection, schedule: Q01DX001 (ip), vehicle: saline.
Setting [8] is: dose: 100.0 mg/kg/injection, schedule: Q04DX003 (ip), vehicle: Klucel (hydroxypropylcellulose) (HPC).
[9] abbreviates: dose: 200.0 mg/kg/injection, schedule: Q04DX003 (ip), vehicle: Klucel (hydroxypropylcellulose) (HPC).
The mark [10] stands for this setting: dose: 400.0 mg/kg/injection, schedule: Q04DX003 (ip), vehicle: Klucel (hydroxypropylcellulose) (HPC).
The mark [11] stands for this setting: dose: 100.0 mg/kg/injection, schedule: Q01DX009 (ip), vehicle: Klucel (hydroxypropylcellulose) (HPC).
Setting [12] is: dose: 200.0 mg/kg/injection, schedule: Q01DX009 (ip), vehicle: Klucel (hydroxypropylcellulose) (HPC).
Where [13] appears, read: dose: 25.0 mg/kg/injection, schedule: Q01DX009 (ip), vehicle: Klucel (hydroxypropylcellulose) (HPC).
[14] abbreviates: dose: 50.0 mg/kg/injection, schedule: Q01DX009 (ip), vehicle: Klucel (hydroxypropylcellulose) (HPC).
Where [15] appears, read: dose: 100.0 mg/kg/injection, schedule: Q04DX003 (ip), vehicle: saline.
Where [16] appears, read: dose: 200.0 mg/kg/injection, schedule: Q04DX003 (ip), vehicle: saline.
[17] abbreviates: dose: 400.0 mg/kg/injection, schedule: Q04DX003 (ip), vehicle: saline.
[18] abbreviates: dose: 100.0 mg/kg/injection, schedule: Q01DX009 (ip), vehicle: saline.

“And” between values parts separate entries of the source, which are not always exact repeats. Equal entries are not always repeated. Toxic doses and inconclusive results are not listed.

Consider `CC(=O)Nc1c(C)cc(Cl)cc1Cl`, for which the T/C was 95 % of control (dose: 25.6 mg/kg/injection, schedule: Q04DX002 (ip), vehicle: saline with Tween-80); 95 % of control (dose: 64.0 mg/kg/injection, schedule: Q04DX002 (ip), vehicle: saline with Tween-80); 91 % of control under setting [1]; 91 % of control under setting [2]; 95 % of control (dose: 160.0 mg/kg/injection, schedule: Q04DX002 (ip), vehicle: saline with Tween-80); 89 % of control under setting [3]. The T/C is 95 % of control under setting [4]; 96 % of control (dose: 400.0 mg/kg/injection, schedule: Q01DX009 (ip), vehicle: saline with Tween-80); 98 % of control (dose: 400.0 mg/kg/injection, schedule: Q04DX002 (ip), vehicle: saline with Tween-80); 98 % of control under setting [5].

With `O=Cc1ccc(C=O)cc1`, the T/C under setting [2] was 94 % of control, the T/C under setting [4] was 105 % of control and the T/C under setting [5] was 106 % of control.

Turning to `COc1cc2c(cc1OCc1ccccc1)C(c1cc(OC)c(OC)c(OC)c1)=C1C(=O)OCC1C2` (configuration not stated), the T/C under setting [6] is 98 % of control; the T/C under setting [7] is 97 % of control; the T/C (dose: 400.0 mg/kg/injection, schedule: Q01DX001 (ip), vehicle: saline) was 97 % of control.

On to `N#CCN(CC#N)S(=O)(=O)c1ccccc1`, for which the T/C under setting [2] was 96 % of control, the T/C under setting [4] was 94 % of control and the T/C under setting [5] was 101 % of control.

Regarding `N#CCC(=O)N1CCCCC1`, the T/C is, setting by setting: (dose: 50.0 mg/kg/injection, schedule: Q01DX001 (ip), vehicle: carboxymethylcellulose (CMC)) 93 % of control; (dose: 100.0 mg/kg/injection, schedule: Q01DX001 (ip), vehicle: carboxymethylcellulose (CMC)) 93 % of control; (dose: 200.0 mg/kg/injection, schedule: Q01DX001 (ip), vehicle: carboxymethylcellulose (CMC)) 114 % of control; (dose: 400.0 mg/kg/injection, schedule: Q01DX001 (ip), vehicle: carboxymethylcellulose (CMC)) 95 % of control.

For the compound `O=C(Nc1cc(Cl)c(Cl)cc1NC(=O)C(Cl)(Cl)Cl)C(Cl)(Cl)Cl`, the T/C was 97 % of control (dose: 5.0 mg/kg/injection, schedule: Q01DX001 (ip), vehicle: other) and 100 % of control (dose: 10.0 mg/kg/injection, schedule: Q01DX001 (ip), vehicle: other).

For the compound `CCOC(=O)c1ccccc1NC(=O)Nc1cc([N+](=O)[O-])ccc1F`, the T/C runs as follows: under setting [8], 88 % of control; under setting [9], 92 % of control; under setting [10], 86 % of control.

Regarding `CC1=CC(C)(C2(O)c3ccccc3-c3ccccc32)C=C(C)C1`, the T/C by setting is: under setting [2], 98 % of control; under setting [4], 95 % of control; under setting [5], 95 % of control.

Regarding `CC1=C(C)CS(=O)(=O)C1`, the T/C by setting is: (dose: 25.0 mg/kg/injection, schedule: Q04DX003 (ip), vehicle: saline with Tween-80) 95 % of control; (dose: 50.0 mg/kg/injection, schedule: Q04DX003 (ip), vehicle: saline with Tween-80) 101 % of control; under setting [2], 102 % of control.

As to `CCCCCCCN=C(N)c1ccc(C(=O)OCc2ccccc2)cc1`, the T/C was 94 % of control under setting [6] and 90 % of control under setting [7].

Take `CC(=O)Nc1ccc(OC(=O)Nc2ccc(F)c([N+](=O)[O-])c2)cc1`: the T/C is, setting by setting: under setting [11], 118 % of control; under setting [12], 112 % of control.

Turning to `C/C=C\C=N\NC(=O)CCCCCCCCCCC`, the T/C was 105 % of control under setting [13]; 91 % of control under setting [14]; 100 % of control and 90 % of control under setting [11].

Take `CCc1c(O)c2ccc3ccccc3c2oc1=O`: the T/C reads like this: under setting [15], 97 % of control; under setting [16], 94 % of control; under setting [17], 94 % of control.

As to `OC1COC(O)C(O)C1O` (configuration not stated), the T/C was 98 % of control under setting [18]; 104 % of control under setting [15]; 103 % of control (dose: 200.0 mg/kg/injection, schedule: Q01DX009 (ip), vehicle: saline); 111 % of control under setting [16]; 93 % of control (dose: 250.0 mg/kg/injection, schedule: Q04DX003 (ip), vehicle: saline); 104 % of control (dose: 400.0 mg/kg/injection, schedule: Q01DX009 (ip), vehicle: saline). The T/C by setting is: under setting [17], 104 % of control; (dose: 500.0 mg/kg/injection, schedule: Q04DX003 (ip), vehicle: saline) 96 % of control; (dose: 1000.0 mg/kg/injection, schedule: Q04DX003 (ip), vehicle: saline) 102 % of control; (dose: 2000.0 mg/kg/injection, schedule: Q04DX003 (ip), vehicle: saline) 91 % of control.

As to `Cc1ccc(S(=O)(=O)N/N=C/c2ccc([N+](=O)[O-])s2)cc1`, the T/C is 96 % of control under setting [8], 94 % of control under setting [9] and 96 % of control under setting [10].

As for `CC(C)(C)c1ccc(CN2CCN(C(c3ccccc3)c3ccc(Cl)cc3)CC2)cc1` (configuration not stated), the T/C is 98 % of control (dose: 12.5 mg/kg/injection, schedule: Q01DX009 (ip), vehicle: Klucel (hydroxypropylcellulose) (HPC)); 91 % of control under setting [13]; 93 % of control (dose: 25.0 mg/kg/injection, schedule: Q04DX003 (ip), vehicle: Klucel (hydroxypropylcellulose) (HPC)); 91 % of control under setting [14]; 93 % of control (dose: 50.0 mg/kg/injection, schedule: Q04DX003 (ip), vehicle: Klucel (hydroxypropylcellulose) (HPC)); 96 % of control under setting [8]. The T/C under setting [9] is 91 % of control.

With `CN(C)/N=N\c1nc[nH]c1C(=O)N1CCCC1`, the T/C runs as follows: (dose: 100.0 mg/kg/injection, schedule: Q01DX001 (ip), vehicle: saline with Tween-80) 100 % of control; (dose: 200.0 mg/kg/injection, schedule: Q01DX001 (ip), vehicle: saline with Tween-80) 105 % of control; under setting [3], 150 % of control and 206 % of control; (dose: 400.0 mg/kg/injection, schedule: Q01DX001 (ip), vehicle: saline with Tween-80) 111 % of control.

As for `COc1cc(C(=O)NC(CCC(=O)O)C(=O)O)ccc1N(C)Cc1cnc2nc(N)nc(N)c2n1` (configuration not stated), the T/C is 154 % of control (dose: 6.25 mg/kg/injection, schedule: Q01DX009 (ip), vehicle: sodium bicarbonate) and 178 % of control (dose: 25.0 mg/kg/injection, schedule: Q01DX009 (ip), vehicle: sodium bicarbonate).

As for `O=C1NCC(Nc2ccc(Br)cc2Cl)C(=O)N1` (configuration not stated), the T/C is, setting by setting: (dose: 100.0 mg/kg/injection, schedule: Q01DX Z (ip), vehicle: methylcellulose (MC)) 96 % of control; (dose: 200.0 mg/kg/injection, schedule: Q01DX Z (ip), vehicle: methylcellulose (MC)) 90 % of control.

Regarding `CCCCC(C)NC1=C(Cl)C(=O)c2ccccc2C1=O` (configuration not stated), the T/C by setting is: (dose: 25.0 mg/kg/injection, schedule: Q01DX009 (ip), vehicle: saline with Tween-80) 101 % of control; (dose: 50.0 mg/kg/injection, schedule: Q01DX009 (ip), vehicle: saline with Tween-80) 93 % of control; under setting [1], 87 % of control.

With `CSCCCNC(=O)c1csc(CCNC(=O)c2ccccc2)n1`, the T/C under setting [2] is 100 % of control, the T/C under setting [4] was 100 % of control and the T/C under setting [5] is 91 % of control.

With `C/C=C(/C(=O)NC(N)=O)C(C)C`, the T/C is 114 % of control under setting [13]; 97 % of control under setting [14]; 111 % of control under setting [11]; 103 % of control under setting [12]; 103 % of control (dose: 400.0 mg/kg/injection, schedule: Q01DX009 (ip), vehicle: Klucel (hydroxypropylcellulose) (HPC)).

Consider `CN=C(N)c1ccc(N=C(N)c2ccc(N=C(N)c3ccc(N=C(O)c4cccc(C(O)=Nc5ccc(C(N)=Nc6ccc(C(N)=Nc7ccc(C(N)=NC)cc7)cc6)cc5)c4)cc3)cc2)cc1`, for which, for the setting “dose: 13.0 mg/kg/injection, schedule: Q01DX015 (ip), vehicle: water”, the T/C was 186 % of control.

Regarding `CCOC(=O)C(C(=O)OCC)C1c2ccccc2C(=O)N(CCN(C)C)c2ccccc21` (configuration not stated), the T/C was 96 % of control (dose: 25.0 mg/kg/injection, schedule: Q01DX009 (ip), vehicle: saline); 99 % of control (dose: 50.0 mg/kg/injection, schedule: Q01DX009 (ip), vehicle: saline); 98 % of control under setting [18].

Values taken from PubChem BioAssay AID248 (DTP/NCI, 2004).
